2 molecules from ChEMBL document CHEMBL3714769, “Heterocyclic compounds for the inhibition of pask” (2014) can be followed below.

The structures appear in SMILES notation.

For the test, the target named is PAS domain-containing serine/threonine-protein kinase (Homo sapiens, UniProt Q96RG2). Put plainly: Inhibition of human recombinant PASK using Ulight-peptide substrate incubated for 2 hrs by TR-FRET assay.
Sequence of PAS domain-containing serine/threonine-protein kinase (Q96RG2 whole entry, the tested form may be a part): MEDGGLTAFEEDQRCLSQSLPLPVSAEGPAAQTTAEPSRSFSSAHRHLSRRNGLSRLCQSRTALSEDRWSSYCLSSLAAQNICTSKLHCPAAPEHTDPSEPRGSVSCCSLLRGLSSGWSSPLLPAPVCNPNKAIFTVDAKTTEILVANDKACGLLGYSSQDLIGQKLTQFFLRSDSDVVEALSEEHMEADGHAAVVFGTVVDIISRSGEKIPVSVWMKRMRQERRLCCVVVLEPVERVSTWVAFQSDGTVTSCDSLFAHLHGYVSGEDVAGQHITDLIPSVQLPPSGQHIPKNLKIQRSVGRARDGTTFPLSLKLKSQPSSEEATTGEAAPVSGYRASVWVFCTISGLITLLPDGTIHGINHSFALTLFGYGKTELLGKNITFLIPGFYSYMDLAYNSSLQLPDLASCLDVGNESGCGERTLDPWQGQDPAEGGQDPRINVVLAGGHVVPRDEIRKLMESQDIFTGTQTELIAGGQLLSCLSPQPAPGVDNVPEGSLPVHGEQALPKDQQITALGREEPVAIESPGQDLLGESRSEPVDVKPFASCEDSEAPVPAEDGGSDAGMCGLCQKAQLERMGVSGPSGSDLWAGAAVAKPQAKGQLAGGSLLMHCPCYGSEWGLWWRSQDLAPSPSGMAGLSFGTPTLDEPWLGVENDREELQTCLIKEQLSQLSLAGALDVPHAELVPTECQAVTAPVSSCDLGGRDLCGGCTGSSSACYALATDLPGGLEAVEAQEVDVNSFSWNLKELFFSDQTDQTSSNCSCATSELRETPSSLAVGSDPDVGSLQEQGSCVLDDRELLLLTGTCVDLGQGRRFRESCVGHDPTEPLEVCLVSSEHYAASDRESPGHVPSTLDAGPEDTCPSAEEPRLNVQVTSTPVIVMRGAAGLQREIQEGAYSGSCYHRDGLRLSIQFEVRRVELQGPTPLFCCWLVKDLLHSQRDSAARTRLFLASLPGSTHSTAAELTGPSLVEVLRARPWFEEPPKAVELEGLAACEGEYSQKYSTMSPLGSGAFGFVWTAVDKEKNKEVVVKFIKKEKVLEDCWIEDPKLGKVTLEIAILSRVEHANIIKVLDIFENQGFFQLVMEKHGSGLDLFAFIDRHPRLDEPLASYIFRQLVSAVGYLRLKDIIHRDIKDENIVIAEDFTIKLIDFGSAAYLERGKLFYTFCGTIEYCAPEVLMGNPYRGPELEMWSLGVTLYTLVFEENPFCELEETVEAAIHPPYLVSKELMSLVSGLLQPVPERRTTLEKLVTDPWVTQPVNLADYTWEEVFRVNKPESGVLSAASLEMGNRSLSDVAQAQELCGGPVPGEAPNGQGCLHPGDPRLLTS

Regarding `COc1cc(-c2cc(=O)n3nc(-c4ccc(F)cc4)nc3[nH]2)ccc1Cl`, the IC50 is not above 10 µM.

Turning to `O=c1cc(-c2ccc3[nH]nnc3c2)[nH]c2nc(-c3ccc(Cl)c(Cl)c3)nn12`, the IC50 is not above 10 µM.
